Reference: ChEMBL document CHEMBL1150550, “A novel condensed tropone-isoquinoline alkaloid, pareitropone, from Cissampelos pareira” (Bioorg Med Chem Lett, 1995)
Values after ≈ are worked out from the molar mass of the structure shown.

The molecules below were run on P388 (assay: Cytotoxicity against cultured p-388 cells). Settings: Mus musculus.
Format: functional, cell-based
Molecule `COc1c(OC)c2c3c(nccc3c1OC)-c1cc(OC)c(=O)ccc1-2` has an IC50 of 1.2 mg/L (≈ 3.42 µM).
Work on `COc1c(OC)c2c3c(nccc3c1OC)-c1cc(O)c(=O)ccc1-2` [GRANDIRUBRINE] yielded an IC50 of 0.18 mg/L (≈ 0.534 µM).
Work on `COc1cc2ccnc3c2c(c1OC)-c1ccc(=O)ccc1-3` [PAREITROPONE] yielded an IC50 of 0.0008 mg/L (≈ 0.00275 µM).
